According to US8592451B2, “Reversible nondepolarizing neuromuscular blockade agents and methods for their use” (Cornell University, priority 2009, dated 2013):

Assays:
[1] = tested on: twitch contractions of the extensor digitorum muscle; assay: Rhesus monkey anesthesia bioassay for potency and duration (substituent and stereochemical comparison, preliminary studies); assay type: in vivo; settings: rhesus monkeys
Method: Two stereoisomeric structures, CW 002 (R-trans, R-trans), and CW 003 (R-cis, R-cis) were tested in the rhesus monkey anesthesia bioassay for potency and duration. A third compound, CW 001 (R-trans, R-trans) bearing an additional methoxyl group on each of the two benzyl groups in the molecule, was also tested.
Rhesus monkeys were anesthetized with ketamine (7.5 mg/Kg) given intramuscularly or intravenously. Anesthesia was maintained with a mixture of isoflurane (1.5%), nitrous oxide (60%) and oxygen (40%). The common peroneal nerve was stimulated supramaximally with square wave pulses of 0.2 m sec duration at a rate of 0.15 Hz. Twitch contractions were recorded via the tendon of the extensor digitorum muscle.
In all animals, the trachea was intubated and ventilation was controlled at 12-15 ml/kg, 18-24 breaths per minute. A peripheral vein and artery were cannulated for drug administration and for recording of arterial pressure, respectively. In preliminary studies a neuromuscular blocking agent having one of the following structures was administered intravenously.

[2] = tested on: twitch of the extensor digitorum; assay: Neuromuscular blocking potency and duration in anesthetized rhesus monkeys; assay type: in vivo, rhesus monkeys (Macaca mulatta); settings: for Duration (± SD/SEM), from injection to recovery of twitch to 95% of baseline: spontaneous recovery
Method: Experiments were approved by the Institutional Animal Care and Use Committee of Weill Medical College of Cornell University (New York, N.Y.) and of Albany Medical College (Albany, N.Y.), where the studies were conducted. A colony of 10 adult male monkeys (Macaca mulatta) weighing 8-18 kg was studied at ˜6 week intervals. Animals were housed and cared for in accordance with the Guide for Care and Use of Laboratory Animals (National Research Council, Washington, D.C.). They were fed a standard Old World monkey diet, enriched with fruits and vegetables, and other dietary novelties and were followed throughout the study to verify normal health by physical examination, body weight, and clinical laboratory studies (Complete Blood Count, Blood Urea Nitrogen and creatinine, and liver function tests).
On the day of each study, monkeys received ketamine (7-10 mg/kg i.m.) followed by tracheal intubation under topical anesthesia with 4% lidocaine. Ventilation was controlled at 10 mL/kg and 20 breaths/min with isoflurane (1.0-2.0%) and N2O/O2 (2:1 mixture). Ringers lactate was administered at ˜10 ml kg^−1 h^−1. Arterial pressure was monitored from a femoral, superficial tibial, or radial (22 gauge) cannula. Heart rate was measured by tachograph from the arterial pulse wave. Core temperature was kept at 36.5-38.0° C. by warming blankets. Electrocardiogram and pulse oximetry were monitored continuously.
Needle electrodes (25 gauge) transmitting square-wave pulses of 0.2 msec duration at supramaximal voltage which were generated by a Grass S-88 stimulator (Grass Instruments, Quincy, Mass.) were placed at the peroneal nerve at the knee to elicit twitch responses of the extensor digitorum of the foot at 0.15 Hz. A small slip (10-20%) of the tendon was dissected free under sterile technique and tied to a Grass FT 10 force transducer (Grass Instruments, Quincy, Mass.) at a baseline tension of 50 gm. Train-of four stimulation (TOF, 2 Hz for 2 sec) was interposed at appropriate points, especially 1-2 min prior to NMBA dosing and following recovery of twitch to 95% of baseline, where TOF was subsequently evaluated every 1-2 min.
Recordings of circulatory and neuromuscular data were made on a Grass 7B polygraph (Grass Instruments). A baseline period of 15-20 min was allowed for stabilization of recordings prior to dosing.^2
Dose-response curves for twitch blockade by gantacurium, CW 002, CW 011, cisatracurium, CW002-Cys, NB 938-69, NB 1064-81, NB 802-17 (CW 001), NB 832-65, and NB 1163-79, structures of which are all shown above, were generated as follows. […] Successive doses were separated by at least three estimated half lives beyond complete recovery of the previous dose to TOF of 110-120%, which is normal for these monkeys. Only the first one or two doses yielding 5 to 99% blockade were included from any single experiment for computation of dose-response data.
Comparative studies of spontaneous recovery versus antagonism/reversal were done at least 3 estimated half-lives following dose-response studies.
ED 50 and ED 95 were computed from the regression of log dose vs. the logit of percentage blockade of twitch.
CW002-Cys, the L-cysteine adduct of CW 002, was available in limited quantity and was administered in cumulative fashion to three animals to compare approximate potency and duration of effect versus its parent compound CW 002.

[3] = Stability of the CW 002-cysteine adduct (HPLC); assay type: physicochemical
Method: [drawing 58] was prepared in one step from CW 002. CW 002 was dissolved in deionized water to give a solution concentration of 37 mg/ml at a pH of 6.6. A 5 mol % excess of L-cysteine hydrochloride monohydrate was added in one portion at ambient temperature to give a solution pH of 2. Stirring for 12 hours gave complete consumption of CW 002, as observed by HPLC. CW002-Cys was isolated as an off-white solid after reaction mixture lyophilization. Product purity was estimated at 95% by HPLC peak area %.
At low pH and temperature, one new peak was formed on L-cysteine addition as the peak corresponding to CW 002 diminished. This new peak corresponds to the initial peak observed in the in vitro L-cysteine adduction experiments at 37° C. and a pH of 7.4. At elevated temperature and pH, such as conditions used to mimic in vivo reactivity, this initial peak quickly diminishes over time (t½˜60 min) while two new adduct peaks arise secondary to alkaline hydrolysis of the adduct. However, at ambient temperature and a pH of 2, the initial adduct is stable for >24 hours, allowing for isolation of the intermediate.

Row | Structure (SMILES) | reversibility of effect by cysteine or glutathione [1] | Potency (ED95 mg/kg) ([1]; intravenously, preliminary studies) | Duration at 4X ED95 ([1]; preliminary studies, 4X ED95, head prints no unit (column beside it: minutes)) | Duration (minutes), from injection to 95% twitch recovery ([1]; preliminary studies, dose not printed (beside ED95 column)) | Duration (± SD/SEM), from injection to recovery of twitch to 95% of baseline ([2]; administered dose 0.03 mg/kg) | Duration (± SD/SEM), from injection to recovery of twitch to 95% of baseline ([2]; administered dose 0.10 mg/kg) | ED 95 (± SD/SEM) ([2]; twitch blockade, monkeys under isoflurane, twitch at 0.15 Hz, calculated from dose-response curve) | Duration, spontaneous recovery (times approximate) ([2]; following cumulative dosage, three animals) | half-life ([3]; 37° C., pH 7.4, read-out: t½ of initial adduct peak (alkaline hydrolysis of the adduct)) | time the initial adduct is stable ([3]; ambient temperature, pH of 2)
1 | COc1cc2c(cc1OC)[C@@H](Cc1cc(OC)c(OC)c(OC)c1)[N@+](C)(CCCOC(=O)/C=C/C(=O)OCCC[N@+]1(C)CCc3cc(OC)c(OC)cc3[C@H]1Cc1cc(OC)c(OC)c(OC)c1)CC2 [NB 802-17] | reversible | 0.04 mg/kg | 50-60 | 30 to 40 min | 35.0 ± 15.0 min | 49.4 ± 5.8 min | 0.033 ± 0.005 mg/kg |  |  | 
2 | COc1ccc(C[C@@H]2c3cc(OC)c(OC)cc3CC[N@@+]2(C)CCCOC(=O)CC(SC[C@@H](N)C(=O)O)C(=O)OCCC[N@+]2(C)CCc3cc(OC)c(OC)cc3[C@H]2Cc2ccc(OC)c(OC)c2)cc1OC (stereo partly shown) [CW002-Cys] |  |  |  |  |  |  |  | ~30-35^+++ min | ~1 h | > 24 h
